# What was measured:
# [1] = system: human acute monocytic leukemia THP-1 cells; assay: MTT cytotoxicity assay, THP-1; assay type: cell-based; conditions: 72 h, n = 3, ± SD, read-out: Suspension Cell Cultures, IC50 THP-1
# Experimental: (§1) All newly synthesized PPA derivatives 1–8 were evaluated for their anti-proliferative activity against human breast cancer MCF-7, human prostate adenocarcinoma PC-3, human colorectal cancer HCT-116, human lung cancer A549, human chronic myelogenous leukemia K562, human acute monocytic leukemia THP-1, human multiple myeloma RPMI8226, human acute T-cell leukemia Jurkat, human multiple myeloma NCI-H929, and human embryonic fibroblasts HEF cell lines by MTT assays. All cells were incubated with different concentrations of PPA derivatives for 72 h, with etoposide and PPA used as reference compounds. The anticancer activity of the tested compounds was described as the concentration of drug inhibiting 50% cell growth IC50 (Table 1 and Table 2).
# (§2) ^1H-NMR spectra were acquired on an AVANCE III 400 MHz NMR spectrometer (Bruker, Rheinstetten, Germany) in CDCl3. Optical rotations were acquired on a Polaar 3005 Polarimeter (Optical Activity, Huntingdon, Great Britain) using a 2.5 cm cell with a Na 589 nm filter and the concentration of samples was denoted as c. Mass spectra data were acquired on a TSQ Quantum Access Max Mass spectrometer (Thermo Fisher Scientific, Waltham, MA, USA). High-resolution mass spectra (HRMS) were acquired on a LTQ Orbitrap Velos spectrometer (Thermo Scientific) and on a Bruker MicrOTOF. FTIR spectra were acquired on an IR Affinity-1 spectrometer (Shimadzu, Thermo Scientific). Organic solvents used were dried by standard methods when necessary. Commercially available reagents were used without further purification. All reactions were monitored by TLC with silica gel coated plates (EMD/Merck KGaA, Darmstadt, Germany), with visualization by UV light and by charring with 0.1% ninhydrin in EtOH. Column chromatography was performed using Merck 60 Å 70–230 mesh silica gel. The optical density was determined using a Multiskan FC spectrophotometer (Thermo Scientific) at a wavelength of 540 nm when using the MTT assay.
# (§3) MCF-7 (breast cancer), PC-3 (prostate adenocarcinoma), HCT-116 (colorectal cancer cell), A549 (lung cancer), K562 (chronic myelogenous leukemia), THP-1 (acute monocytic leukemia), and RPMI8226 (multiple myeloma), Jurkat (acute T-cell leukemia), HEF (human embryonic fibroblasts) was purchased from the Russian Academy of Sciences Cells Bank (Institute of Cytology of the Russian Academy of Sciences, Saint Petersburg, Russian Federation). Multiple myeloma cell line NCI-H929 was purchased from ATCC (USA). The MCF-7, A549 and HEF (human embryonic fibroblasts) were cultured in DMEM medium. Other cell lines were cultured in RPMI1640 medium, (PanEco, Russia) supplemented with 10% fetal bovine serum (GE Healthcare LifeSciences, São Paulo, Brazil), and gentamicin at a concentration of 40 μg/mL and cultured at 37 °C in a humidified atmosphere containing 5% CO2. All experiments were performed with cells at passages 3 to 7 in the logarithmic phase of growth.
# (§4) Cells were seeded into 96-well plates of 5 × 10^3 for adhesive cultures and 20 × 10^3 for suspension cultures per well in 90 μL and 135 μL of culture medium, respectively. The test substances were dissolved in DMSO to a concentration of 1 × 10^−2 M. For subsequent dilution of the substances, a serum-free culture medium was used as the diluent. Final concentration of DMSO in wells was no more than 1%. […] Substances were added to the cells in 3–4 replicates after 24 h for adhesive cultures and immediately for suspension cultures. 10–15 μL of serum-free medium was added to the control wells with non-exposed cells. Cells were cultured for 72 h at 37 °C in an atmosphere of 5% CO2.
# [2] = system: human embryonic fibroblasts HEF; assay: MTT cytotoxicity assay, HEF (control cells); assay type: cell-based; conditions: Fibroblast, 72 h, n = 3, ± SD, read-out: Adhesive Cell Cultures, IC50 HEF
# Experimental: as §1, §2, §3, §4
# [3] = system: human breast cancer MCF-7 cells; assay: MTT cytotoxicity assay, MCF-7; assay type: cell-based; conditions: MCF7, 72 h, n = 3, ± SD, read-out: Adhesive Cell Cultures, IC50 MCF-7
# Experimental: as §1, §2, §3, §4
# [4] = system: human multiple myeloma NCI-H929 cells; assay: MTT cytotoxicity assay, NCI-H929; assay type: cell-based; conditions: for IC50: Homo sapiens, MTT, 72 h, n = 3, ± SD, read-out: Suspension Cell Cultures, IC50 NCI-Н929
# Experimental: as §1, §2, §3, §4
# [5] = system: human acute T-cell leukemia Jurkat cells; assay: MTT cytotoxicity assay, Jurkat; assay type: cell-based; conditions: for IC50: Homo sapiens, MTT, 72 h, n = 3, ± SD, read-out: Suspension Cell Cultures, IC50 Jurkat
# Experimental: as §1, §2, §3, §4
# [6] = system: human prostate adenocarcinoma PC-3 cells; assay: MTT cytotoxicity assay, PC-3; assay type: cell-based; conditions: for IC50: Homo sapiens, MTT, 72 h, n = 3, ± SD, read-out: Adhesive Cell Cultures, IC50 PC-3
# Experimental: as §1, §2, §3, §4
# [7] = system: human multiple myeloma RPMI8226 cells; assay: MTT cytotoxicity assay, RPMI8226; assay type: cell-based; conditions: for IC50: Homo sapiens, RPMI-8226, MTT, 72 h, n = 3, ± SD, read-out: Suspension Cell Cultures, IC50 RPMI8228
# Experimental: as §1, §2, §3, §4
# [8] = system: human colorectal cancer HCT-116 cells; assay: MTT cytotoxicity assay, HCT-116; assay type: cell-based; conditions: for IC50: Homo sapiens, MTT, 72 h, n = 3, ± SD, read-out: Adhesive Cell Cultures, IC50 HCT-116
# Experimental: as §1, §2, §3, §4
# mice [9] = system: mice; parameters: method as in RTECS # KC0190000; conditions: i.p., ref RTECS # KC0190000; cited from earlier work
# [10] = system: human lung cancer A549 cells; assay: MTT cytotoxicity assay, A549; assay type: cell-based; conditions: 72 h, n = 3, ± SD, read-out: Adhesive Cell Cultures, IC50 A549
# Experimental: as §1, §2, §3, §4
# [11] = system: human chronic myelogenous leukemia K562 cells; assay: MTT cytotoxicity assay, K562; assay type: cell-based; conditions: for IC50: Homo sapiens, MTT, 72 h, n = 3, ± SD, read-out: Suspension Cell Cultures, IC50 К562
# Experimental: as §1, §2, §3, §4
# mice [12] = assay: Acute intraperitoneal toxicity study; assay type: in vivo
# Experimental: (§5) Six to eight-week-old outbreed male mice were purchased from the Rappolovo Animal Farm of the Russian Academy of Sciences. Animals were group housed in solid bottom polycarbonate cages (3–5 animals/cage) and provided with sterilized pelleted food and pure water ad libitum.
# (§6) Thirty mice were randomly assigned to the acute toxicity study. Animals in experimental groups ([…]) received a dose formulation containing compound 6 solution in 5% DMSO at various dosages (8.25, 82.5 and 200 mg/kg) via single i.p. injection. Mice in the control group treated with vehicle (5% DMSO). The location of the i.p. injection was in the lower left abdominal quadrant. […] After treatments, the following parameters and end points were evaluated for 14 days: mortality, clinical signs, body weight, food consumption, locomotion, salivation, diarrhea, and lethargy. The maximum tolerated dose in this study is defined as the highest dose that will be tolerated and not produce major life-threatening toxicity for the study duration. All experimental procedures were performed according to the principles and guidelines for the care and use of laboratory animals. The animals were sacrificed by carbon dioxide asphyxiation and cervical dislocation. All efforts were made to minimize suffering. Post mortem evaluation included gross examination for all animals at terminal necropsy and calculation of organ mass coefficients. No histopathological examinations were performed.
# [13] = Acute intraperitoneal toxicity study; assay type: in vivo; conditions: male, outbred (printed 'outbreed'), mouse, in vivo, ip, mice, single i.p. injection, 14 days
# Experimental: as §5, §6
SMILES,IC50 [1],IC50 [2],IC50 [3],IC50 [4],IC50 [5],IC50 [6],IC50 [7],IC50 [8],IC50 [10],IC50 [11],also measured
"COc1cc([C@@H]2c3cc4c(cc3[C@@H](O[C@@H]3O[C@@H]5CO[C@@H](C)O[C@H]5[C@H](O)[C@H]3O)[C@H]3COC(=O)[C@H]23)OCO4)cc(OC)c1O [Etoposide, etoposide, reference compound]",830 ± 210 nM,> 100 µM,9.6 ± 0.27 µM,920 ± 30 nM,880 ± 740 nM,2700 ± 50 nM,4600 ± 280 nM,22 ± 1.1 µM,> 100 µM,8.47 ± 0.95 µM,Intraperitoneal LD50 (mice [9]): 64 mg/kg
"C=C1C2=C(C(=O)N1OC)[C@@H](N1CCCC1)[C@@](C)(O)[C@H](CCCCC)O2 [Compound 6, (2S,3R,4R)-3-Hydroxy-6-methoxy-3-methyl-7-methylene-2-pentyl-4-pyrrolidin-1-yl-3,4,6,7-tetrahydro-pyrano[2,3-c]pyrrol-5(2H)-one]",2050 ± 210 nM,4 ± 0.17 µM,3.25 ± 0.64 µM,230 ± 20 nM,550 ± 290 nM,200 ± 70 nM,630 ± 230 nM,0.47 ± 0.01 µM,10.1 ± 0.5 µM,0.54 ± 0.03 µM,"fold increase in anticancer activity comparative to etoposide [4]: 4 fold; fold stronger than the reference compound PPA [4]: 28 fold; fold increase in anticancer activity comparative to etoposide [5]: 1.5 fold; fold stronger than the reference compound PPA [5]: 17.5 fold; fold increase in anticancer activity comparative to etoposide [6]: 13.5 fold; fold stronger than the reference compound PPA [6]: 160 fold; fold increase in anticancer activity comparative to etoposide ([7]; RPMI8226): 7 fold; fold stronger than the reference compound PPA ([7]; RPMI8226): 14.5 fold; fold increase in anticancer activity comparative to etoposide [8]: 47 fold; fold stronger than the reference compound PPA [8]: 51 fold; toxicity in vivo comparative to etoposide (mice [12]; mice, i.p.): less toxic; effect on mean body weight or mass coefficients (spleen, liver, heart, kidney, lung, thymus, and adrenal) (mice [12]; mouse, in vivo, ip): No effect; gross abnormalities in the organs tested (mice [12]; mouse, in vivo, ip): No gross abnormalities; LD50 at 14 days ([13]; not determined, believed to be more than, read-out: Median lethal dose (LD50)): > 200 mg/kg; MTD at 14 days ([13]; read-out: Maximum tolerated dose): ≥ 82.5 mg/kg; fold increase in anticancer activity comparative to etoposide [11]: 16 fold; fold stronger than the reference compound PPA [11]: 37 fold"

# Reference: PMC6278656, “Synthesis and Biological Evaluation of Phaeosphaeride A Derivatives as Antitumor Agents” (Molecules, 2018)
